Test [1] deals with CD8 CTL clone 5101.1999.23. In words: 51Cr release CTL assay, CD8 clone 5101.1999.23. The format is cell-based, human. As to conditions: autologous targets infected with wild-type HSV-2 in the presence of 5 μg/ml actinomycin D, E:T 20:1.
For test [2], the system named is CD8 CTL clone 5491.2000.48. In words: 51Cr release CTL assay, CD8 clone 5491.2000.48. The test is classed as cell-based, human. The note with it: autologous targets infected with wild-type HSV-2 in the presence of 5 μg/ml actinomycin D, E:T 20:1.
Test [3] deals with CD8 CTL clone 1874.1991.22. In words: 51Cr release CTL assay, CD8 clone 1874.1991.22. The format is cell-based, human. The note with it: autologous targets infected with wild-type HSV-2 in the presence of 5 μg/ml actinomycin D, E:T 20:1.
A further test concerns CD4+ T cell clone. The experiment in a line: Reactivity with a CD4+ T cell clone (HLA DRBI*1501). The format is cell-based, human. As to conditions: in association with HLA class II molecule DRBI*1501. An excerpt:
This epitope is recognized in association with the HLA class II molecule DRBI*1501, which is fairly prevalent in most human populations.

For test [4], the system named is TCC SB.17. The experiment in a line: Cytolysis assay (4-hour 51Cr release), CD4 TCC SB.17. The format is cell-based, human. The note with it: autologous EBV-LCL targets, HSV-2 infected or 1 μM peptide, E:T 20:1. Here is the method:
(§1) Cytolysis assays were performed in triplicate using 4-hour [^51]Cr release as described (D. M. Koelle et al., 1993, J. Clin. Invest., 91:961-968). […] W. Kwok et al., 1996,J. Exp. Med., 183:1253-1258). The effector to target ratio was 20:1. Spontaneous release was less than 28%.

Test [5] relates to TCC SB.17. The experiment in a line: T-cell proliferation, TCC SB.17. The test is classed as cell-based, human. As to conditions: VP16 1-492 at 1 μg/ml, β-gal-VP16 180-492 at 1:1,000, peptides at 1 μM. As for the experimental part: (§2) Triplicate proliferation assay wells contained 10^4 cloned T-cells, 10^5 irradiated (3300 rad) PBMC or 2.5×10^4 irradiated (8000 rad) EBV-LCL as antigen presenting cells (APC), and antigen in 200 μl T-cell media (D. M. Koelle et al., 1997, Human. Immunol., 53:195-205) in 96-well U-bottom plates. When heat-killed bacteria were used as antigen, the equivalent of 10^5 cfu/well (prior to inactivation) was added and gentamicin (20 μg/ml) was included. After 72 hours, 1 μCi/well ^[3]H thymidine was added for 18 hours, cells were harvested, and incorporation of thymidine evaluated by liquid scintillation counting. Standard deviations were less than 10% of the mean values. Results are reported as mean cpm or as delta cpm=mean cpm for experimental antigen minus mean cpm for control antigen. Control antigen was mock-infected cell lysate for whole viral antigens and pUEX2-derived β-galactosidase for recombinant protein preparations. […]
(§3) Three epitopes within VP16, all HSV-2 type-specific were previously identified (K. R. Jerome et al., 1998, J. Virol., 72:436-441), and proliferative responses to full-length VP16 in bulk cultures of genital HSV-2 lesion-infiltrating lymphocytes from four of seven (57%) patients were detected (D. M. Koelle et al., 1998, J. Clin. Invest., 101:1500-09). […]

Test [6] relates to TCC BM.17. The experiment in a line: Cytolysis assay (4-hour 51Cr release), CD4 TCC BM.17. The format is cell-based, human. The note with it: autologous EBV-LCL targets, HSV-2 infected or 1 μM peptide, E:T 20:1. Here is the method:
as §1

Test [7] concerns TCC BM.17. The experiment in a line: T-cell proliferation, TCC BM.17. The format is cell-based, human. The note with it: VP16 1-492 at 1 μg/ml, β-gal-VP16 180-492 at 1:1,000, peptides at 1 μM. Here is the method: as §2, §3
Test [8] deals with genital HSV-2 lesion-infiltrating lymphocytes. The note with it: four of seven patients; Koelle et al., 1998; cited from earlier work.
The next test relates to B1 cell line. In words: Proliferation of short-term HSV-specific B1 cell lines from seven HSV-2 infected adults. The format is cell-based, human. The note with it: seven HSV-2 infected immunocompetent adults; positive = stimulation index >= 4.0. Here is the method:
For each subject, PBMC were isolated and plated at 2×10^6 cells/well in 2 mls of T-cell medium in 24-well plates and stimulated in vitro with a 1:500 dilution of UV-inactivated HSV-2 strain 333 for five days. At that time, 40 units/ml recombinant human IL-2 was added for an additional five to six days, giving rise to a short-term, HSV-specific cell line termed a B1 cell line.
Reactivity to individual HSV-2 proteins was assessed as follows. Proliferation assays were set up on 96-well round bottom microtiter plates, and each condition was performed in triplicate. To each well, 1×10^5 autologous irradiated (3300 rad gamma) PBMC were added as antigen presenting cells. To each well, 1×10^4 B1 cells were added. The following control substances were added: media, UV-treated mock virus preparation diluted 1:500, UV-treated HSV-2 strain 333 diluted 1:500, glycoproteins B or D or VP16 protein of HSV-2 (purified) at 4 micrograms per ml final concentration. The response to UV-treated HSV-2 was expected to be positive and served as a positive control for the viability and overall specificity of the cells. […]
Positive responses were scored if the stimulation index (mean cpm ^3H thymidine incorporation for test antigen/mean cpm ^3H thymidine incorporation for relevant control antigen) was greater than or equal to 4.0. […]

These results are taken from US6814969B2, “Immunologically significant herpes simplex virus antigens and methods for using same” (University of Washington, priority 2001, dated 2004).

Starred links: 1 amine or outer side, 2 acyl side, 3 side chain; linkers in the order of their positions; H or OH if unused. Positions of bridges follow the written chain, without caps; N, C: chain ends. Non-standard residues stand in square brackets, D forms with d. Residues, ends and D or L forms follow the SMILES beside them. Chains are numbered I, II in the order given. Actinocin(9to1) = Cc1c2oc3c(C)ccc(C(=O)[*:1])c3nc-2c(C(=O)[*:2])c(N)c1=O; NMeV = CN[C@H](C(=O)O)C(C)C; Sar = CNCC(=O)O

As to `Cc1c2oc3c(C)ccc(C(=O)N[C@@H]4C(=O)N[C@H](C(C)C)C(=O)N5CCC[C@H]5C(=O)N(C)CC(=O)N(C)[C@@H](C(C)C)C(=O)O[C@@H]4C)c3nc-2c(C(=O)N[C@@H]2C(=O)N[C@H](C(C)C)C(=O)N3CCC[C@H]3C(=O)N(C)CC(=O)N(C)[C@@H](C(C)C)C(=O)O[C@@H]2C)c(N)c1=O` [actinomycin D] (I: T[dV]P[Sar][NMeV] / II: T[dV]P[Sar][NMeV]; ester I:1-I:C, II:1-II:C; linker I:N-II:N via Actinocin(9to1)), the percent specific release in [1] stood at 35.8%; in test [2], 49.2%; in test [3], 45.1%.

Regarding RLRELNHIREHLNLPLVRSA [VP16 288-307], the “reactivity with a CD4+ T cell clone” value in the test with CD4+ T cell clone is “reactivity”.

For “VP16 437-449: HSV-2 VP16 (UL48) peptide, amino acids 437-449 (ADALDDFDLEMLG; UniProt P68336 437-449, looked up, fragment)”, the percent specific release in the test with TCC SB.17 [4] came out at 60.6%; with TCC BM.17 [6], 28.5%. Besides, the “delta cpm [3H] thymidine incorporation compared to media” value with TCC SB.17 [5] is 36,442 cpm; in the test with TCC BM.17 [7] it was 79,723 cpm.

B1: VP16 of HSV-2: VP16 protein of HSV-2 (purified) (protein)
chain: MDLLVDDLFADADGVSPPPPRPAGGPKNTPAAPPLYATGRLSQAQLMPSPPMPVPPAALFNRLLDDLGFSAGPALCTMLDTWNEDLFSGFPTNADMYRECKFLSTLPSDVIDWGDAHVPERSPIDIRAHGDVAFPTLPATRDELPSYYEAMAQFFRGELRAREESYRTVLANFCSALYRYLRASVRQLHRQAHMRGRNRDLREMLRTTIADRYYRETARLARVLFLHLYLFLSREILWAAYAEQMMRPDLFDGLCCDLESWRQLACLFQPLMFINGSLTVRGVPVEARRLRELNHIREHLNLPLVRSAAAEEPGAPLTTPPVLQGNQARSSGYFMLLIRAKLDSYSSVATSEGESVMREHAYSRGRTRNNYGSTIEGLLDLPDDDDAPAEAGLVAPRMSFLSAGQRPRRLSTTAPITDVSLGDELRLDGEEVDMTPADALDDFDLEMLGDVESPSPGMTHDPVSYGALDVDDFEFEQMFTDAMGIDDFGG
As to B1, the “patients with proliferative responses in bulk cultures of lesion-infiltrating lymphocytes” value in test [8] was 57%. In the test on B1 cell line, the “% (subjects with positive response)” value amounted to 0% and the “n (subjects with positive response)” value is 0.
